# Measured values taken from patent publication US6280760A, “Peptide-coated implants and methods for producing same” (Merck Patent Gesellschaft mit beschraenkter Haftung, priority 1997, dated 2001).
# Key:
# [1] = test system: osteoblast cell cultures; assay: Inhibition of osteoblast binding to thiolpeptide 1-coated surfaces by dissolved cyclic RGDfK in the adhesion medium; assay type: cell-based, mouse, human, rat; settings: dissolved peptide in the adhesion medium; coating 10 μM; FIG. 4
# Description: FIG. 4: Adhesion of osteoblasts to test surfaces coated with thiolpeptide 1-SMPP derivative (10 μM in the coating solution) (see FIG. 2)
# x axis: Concentration of dissolved cyclo-RGDfK (without molecular anchor) in the adhesion medium (μM),
# To do this, 48-well plates (Costar, "non-tissue culture treated", Art. No. 3547) were each coated with 250 μl of PBS (phosphate-buffered saline), pH=8.3, 2% BSA, per well and incubated overnight at room temperature in order to generate a BSA layer on the polystyrene. The plates were then washed with 250 μl of PBS, pH=8.3, per well and incubated at room temperature for 1 hour with 250 μl each of a solution containing 100 μg/ml of SMPB in PBS, pH 8.3. Washing of the wells was then carried out three times using 250 μl of PBS, pH 8.3, each time. For the preparation of the coating solutions, the appropriate thiol-RGD peptide was prepared in the following final concentrations in PBS, pH 8.3: 1 nM, 10 nM, 100 nM, 1 μM, 10 μM, 100 μM and 1 mM. After addition of 250 μl each of coating solution/well, the plates were incubated at room temperature overnight and then washed three times with PBS, pH 8.3. […]
# (§1) The quantification of the adhered cells was carried out indirectly via the activity determination of the cellular enzyme N-acetylhexosaminidase using an appropriate standard curve according to the method of Landegren (1984, J. Immunol. Methods, 67: 379-388).
# [2] = test system: human platelets; assay: Adhesion of human platelets to PMMA bone cement shaped articles coated with cell-selective acrylate peptides; assay type: cell-based; settings: for cell adhesion, calculated Abs (405 nm), platelets: first part experiment
# Excerpt: (§2) The model used for material coating with RGD peptides of different cell selectivity to obtain implants having locally differentiated bioactive coating patterns which should stimulate the adhesion of different cell species was polymerized PMMA bone cement shaped articles. To these were covalently coupled two RGD peptides of different cell selectivity. In this case acrylate peptide 3, type iiia, having a selectivity for alphav beta3 -/alphav beta5 -integrin-bearing osteoblasts, and acrylate peptide 5, type iiia, having a selectivity for […] -positive platelets were bonded to the PMMA shaped articles as described for Example 3.
# (§3) a. In the first part experiment, PMMA shaped articles were coated with the acrylate peptides 3 and 5 in concentrations in the coating solution of 100 μM, 10 μM and 1 μM in each case. These RGD peptide-coated materials were then inoculated in parallel with osteoblasts and platelets and their cell adhesion was determined.
# (§4) MC3T3 H1 osteoblasts (350,000 cells/cm^2) and human platelets (50 million cells/cm^2) were in each case inoculated in parallel both onto acrylate peptide 3- and acrylate peptide 5-coated PMMA shaped articles and their cell adhesion was determined as described in Example 3.
# Human platelets were prepared following the process of Shattil and Brass (J. Biol. Chem. 262:992-1000, 1987).
# (§5) b. In the second part experiment, PMMA shaped articles were likewise coated with the acrylate peptides 3 and 5, but only in a concentration in the coating solution of 100 μM in each case. These RGD peptide-coated materials were then inoculated in parallel with osteoblasts, platelets or an osteoblast/platelet mixture and their cell adhesion was determined. MC3T3 H1 osteoblasts (350,000 cells/cm^2), human platelets (50 million cell/cm^2) and a cell mixture (350,000 osteoblasts/cm^2 […] 50 million platelets/cm^2) were in each case inoculated in parallel both onto acrylate peptide 3- and acrylate peptide 5-coated PMMA shaped articles and their cell adhesion was determined as described in Example 3.
# [3] = test system: osteoblasts/platelets mixture; assay: Adhesion of an osteoblast/platelet mixture to PMMA bone cement shaped articles coated with cell-selective acrylate peptides; assay type: cell-based, mouse, human; settings: second part experiment; 100 μM peptide in the coating solution
# Description: as §5
# [4] = test system: MC3T3 H1 osteoblasts; assay: Adhesion of MC3T3 H1 osteoblasts to PMMA bone cement shaped articles coated with cell-selective acrylate peptides; assay type: cell-based, mouse; settings: for cell adhesion, calculated Abs (405 nm), osteoblasts: first part experiment
# Excerpt: as §2, §3, §4, §5
# [5] = test system: MC3T3 H1 osteoblasts; assay: Adhesion of MC3T3 H1 osteoblasts to PMMA moulded articles coated with acrylate RGD peptides; assay type: cell-based, mouse; settings: for maximal adsorption rates: 48,000 cells/cm^2, 1 hour
# Description: For the covalent coupling of these peptides to polymerized PMMA (polymethyl methacrylate) surfaces, appropriate shaped articles of differing porosity (diameter: 10 mm; height: 2 mm) were prepared from three different PMMA components.
# Bone cement based on PMMA (Merck KGaA, Germany, Licence No. 5181.00.00) corresponding to the product description (40 g of powder+20 ml of liquid).
# 10 g of PMMA/PHEMA (polyhydroxyethyl methacrylate) granules, particle size 0.5-0.6 mm (Biomet) were mixed with 1.3 ml of an HEMA solution (68.6% HEMA, 29.4% TEGMA [triethylene glycol dimethacrylate], 2% tBPB, [tert-butyl peroxybenzoate]) and adhered by means of this to a porous support material.
# 10 g of PMMA granules (Plex Y7H, Rohm, Germany), particle fraction 0.7-2 mm were mixed with 1.5 ml of a methyl methacrylate (MMA) solution (68.6% MMA, 29.4% TEGMA, 2% tBPB) and adhered by this means to a porous support material.
# For the covalent coupling of the acrylate peptides to the prepolymerized PMMA moulded articles, stock solutions of the acrylate peptides 1, 2, 3 and 4 were prepared in a final concentration of 100 μM in each case in DMSO/0.2% camphorquinone (w/v). Then, by dilution with isopropanol/0.2% camphorquinone (w/v), concentration series having final peptide concentrations of 0.1 nM, 1 nM, 10 nM, 100 nM, 1 μM and 10 μM in each case were prepared. The moulded articles were incubated in daylight and at room temperature for 2 hours and then stored at 4° C. in the dry state. Before use, the samples were washed with PBS, pH 7.4, to remove unbound peptides and stored at 4° C. in PBS, pH 7.4, overnight.
# By addition of 250 μl/moulded article each of a 5% strength BSA solution in PBS, pH 7.4, and subsequent incubation for 2 hours at room temperature and washing once with PBS, pH 7.4, non-specific cell-binding sites were blocked.
# Subsequently, the adhesion of osteoblasts of the MC3T3 H1 line, obtained from the calvaria of neonatal mice (Heermeier et al., 1995, Cells and Materials 5: 309-321) to the above-described peptide-coated surfaces was investigated.
# The MC3T3 H1 osteoblasts were inoculated at an inoculation density of 48,000 cells/cm^2, as described above, in Costar 48-well plates, with PMMA moulded articles coated with RGD peptide and then incubated for 1 hour at 37° C., 95% atmospheric humidity and 5% CO2. Cells non-adhered during the experiment were then washed off twice with PBS, pH 7.4.
# as §1
# [6] = 1 μM peptide in the coating solution
# [7] = 10 μM peptide in the coating solution
# [8] = 100 μM peptide in the coating solution
# [9] = second part experiment, 100 μM peptide in the coating solution
# [10] = bone cement shaped articles, FIG. 8
# [11] = different PMMA moulded articles
compound,measurement,setting,value
"N=C(N)NCCC[C@@H]1NC(=O)[C@H](CCCCN)NC(=O)[C@@H](Cc2ccccc2)NC(=O)[C@H](CC(=O)O)NC(=O)CNC1=O [cyclic RGDfK, cyclo-RGDfK (Arg-Gly-Asp-DPhe-Lysine)]",inhibition of osteoblast binding to thiolpeptide 1-sulpho-SMPB derivative-coated surfaces,[1],completely inhibited
cyclo (RGDf[acrylic-ahx-tEG-KG]) [acrylate peptide 5],"cell adhesion, calculated Abs (405 nm), platelets",[2]; [6],about 0.2 Abs
same,"cell adhesion, calculated Abs (405 nm), platelets",[2]; [7],about 0.5 Abs
same,"cell adhesion, calculated Abs (405 nm), platelets",[2]; [8],about 4.0 Abs
same,"cell adhesion, Abs, platelets alone",[2]; [9],about 4.0 Abs
same,"cell adhesion, Abs, osteoblasts/platelets inoculated as a mixture",[3],about 6.5 Abs
same,"cell adhesion, calculated Abs (405 nm), osteoblasts",[4]; [6],about 0.2 Abs
same,"cell adhesion, calculated Abs (405 nm), osteoblasts",[4]; [7],about 1.0 Abs
same,"cell adhesion, calculated Abs (405 nm), osteoblasts",[4]; [8],about 1.5 Abs
same,"cell adhesion, Abs, osteoblasts alone",[4]; [9],about 1.5 Abs
cyclo(RGDf[acrylic-ahx-K]) [acrylate peptide 1],stimulation of cell adhesion (in words),"[5]; PMMA carriers, comparison of anchor lengths",almost inactive
same,cell adsorption rates increased in comparison with uncoated surfaces,[5]; [10],about 1.5 fold
same,maximal adsorption rates,[5]; [11],about 20%
cyclo(RGDf[acrylic-ahx-ahx-K]) [acrylate peptide 2],cell adsorption rates increased in comparison with uncoated surfaces,[5]; [10],5-15 fold
same,maximal adsorption rates,[5]; [11],80-100%
same,EC50,"[5]; different PMMA moulded articles, read-out: half-maximal cell bindings, RGD peptide concentration in the coating solution",0.001 to 10 µM
same,cell adsorption rates increased in comparison with uncoated surfaces,"[5]; porous PMMA/PHEMA granule shaped articles, FIG. 9",2-5 fold
same,cell adsorption rates increased in comparison with uncoated surfaces,"[5]; porous Plex Y7H granule shaped articles, FIG. 10",2-3 fold
